In US20130236480A1, “TRANSGLUTAMINASE 2 INHIBITORS FOR USE IN THE PREVENTION OR TREATMENT OF RAPIDLY PROGRESSIVE GLOMERULONEPHRITIS” (priority 2010, published 2013):

Tested on: primary culture of mouse podocytes
Experiment: Wound assay of podocyte migration
Type: cell-based
Settings: 100 μM MDC in DMSO, differentiated podocytes, p<0.05 vs. vehicle alone (n=3)
Protocol: FIG. 4: Distance of migration of differentiated podocytes within 20 h in the wound assay. A wound assay was used to assess podocyte migration. Differentiated cells were seeded in a 35 mm μ-Dish (Ibidi) forming two confluent monolayers separated by a silicon insert of 500 μm width. After 1 day, the silicon insert was removed and 100 μM of MDC (monodansylcadaverin, Sigma-Aldrich #D4008) diluted in DMSO, a TG2 inhibitor, was added or not. Cells were fixed 20 h later and the distance between the two monolayers was measured. *p<0.05 vs. vehicle alone (n=3 per condition).
In vivo podocytes are terminally differentiated and stationary cells. During crescent formation in anti-GBM GN in mice, however, podocytes assume a migratory phenotype, attach with their apical membrane onto the parietal basement membrane and start to proliferate.

CN(C)c1cccc2c(S(=O)(=O)NCCCCCN)cccc12 [monodansylcadaverine]
Migration of podocytes (distance of migration within 20 h in the wound assay): significantly blunted
